Data published in ChEMBL document CHEMBL3603789, “N-Lipidated Peptide Dimers: Effective Antibacterial Agents against Gram-Negative Pathogens through Lipopolysaccharide Permeabilization” (J Med Chem, 2015).
≈ marks a conversion by molar mass, not a printed value. Calls of active or inactive are those of the source. The calls are words filed in the database; no cut-off is given here. Bridge positions count the residues as written; N and C are the ends. Peptide text beside a SMILES is read from it. I, II: the chains in the order shown. * marks the point of attachment. Decanoyl = CCCCCCCCCC(=O)*; Hexanoyl = CCCCCC(=O)*

Legend:
[1] = Toxicity in New Zealand white rabbit erythrocytes assessed as hemolytic activity after 60 mins; assay type: cell-based, Oryctolagus cuniculus; conditions: erythrocyte, 1 h
Klebsiella pneumoniae [2] = experiment: Antibacterial activity against Klebsiella pneumoniae DM4299 after 24 hrs by broth microdilution method; assay type: functional; conditions: DM4299, 24 h
Pseudomonas aeruginosa [3] = experiment: Antibacterial activity against Pseudomonas aeruginosa DM23155 after 24 hrs by broth microdilution method; assay type: functional; conditions: DM23155, 24 h
Escherichia coli [4] = experiment: Antibacterial activity against Escherichia coli ATCC 25922 after 24 hrs by broth microdilution method; assay type: functional; conditions: ATCC 25922, 24 h
Pseudomonas aeruginosa [5] = experiment: Antibacterial activity against Pseudomonas aeruginosa DR18531 after 24 hrs by broth microdilution method; assay type: functional; conditions: DR18531, 24 h
Pseudomonas aeruginosa [6] = experiment: Antibacterial activity against Pseudomonas aeruginosa DM4150R after 24 hrs by broth microdilution method; assay type: functional
Pseudomonas aeruginosa [7] = experiment: Antibacterial activity against Pseudomonas aeruginosa DM23257 after 24 hrs by broth microdilution method; assay type: functional; conditions: DM23257, 24 h
Pseudomonas aeruginosa [8] = experiment: Antibacterial activity against Pseudomonas aeruginosa DM23376 after 24 hrs by broth microdilution method; assay type: functional; conditions: DM23376, 24 h
Pseudomonas aeruginosa [9] = experiment: Antibacterial activity against Pseudomonas aeruginosa DU14476 after 24 hrs by broth microdilution method; assay type: functional; conditions: DU14476, 24 h
Pseudomonas aeruginosa [10] = experiment: Antibacterial activity against Pseudomonas aeruginosa DR5790 after 24 hrs by broth microdilution method; assay type: functional; conditions: DR5790, 24 h
Pseudomonas aeruginosa [11] = experiment: Antibacterial activity against Pseudomonas aeruginosa DR4877 after 24 hrs by broth microdilution method; assay type: functional; conditions: DR4877, 24 h
Pseudomonas aeruginosa [12] = experiment: Antibacterial activity against Pseudomonas aeruginosa ATCC 9027 after 24 hrs by broth microdilution method; assay type: functional; conditions: ATCC 9027, 24 h
Pseudomonas aeruginosa [13] = experiment: Antibacterial activity against Pseudomonas aeruginosa ATCC 27853 after 24 hrs by broth microdilution method; assay type: functional; conditions: ATCC 27853, 24 h
Lipopolysaccharide (LPS) [14] = experiment: Displacement of dansylcadaverine from Escherichia coli 0111:B4 LPS at 15 to 30 uM after 5 mins by high-throughput fluorescence displacement assay
Lipopolysaccharide (LPS) [15] = experiment: Induction of Escherichia coli 0111:B4 LPS neutralization using p-nitroaniline assessed as concentration required to neutralize 50% after 1 hr by limulus amebocyte lysate assay
Pseudomonas aeruginosa [16] = experiment: Induction of cytoplasmic membrane depolarization in Pseudomonas aeruginosa DM23155 at 4 times MIC after 1 hr by fluorescence assay; assay type: functional, organism-based
Pseudomonas aeruginosa [17] = experiment: Induction of cytoplasmic membrane disruption in Pseudomonas aeruginosa DM23155 assessed as membrane integrity at 1 to 2 times MIC after 1 hr by fluorescence assay; assay type: functional
Pseudomonas aeruginosa [18] = experiment: Induction of cytoplasmic membrane disruption in Pseudomonas aeruginosa DM23155 assessed as membrane integrity at 2 times MIC after 1 hr by fluorescence assay; assay type: functional
[19] = Induction of calcein leakage from DOPE/DOPG artificial membrane at 1:32 ratio of compound to lipid by fluorescence assay; assay type: physicochemical
[20] = Induction of calcein leakage from DOPC artificial membrane at 1:32 ratio of compound to lipid by fluorescence assay; assay type: physicochemical
Escherichia coli [21] = experiment: Antibacterial activity against Escherichia coli DS17232 after 24 hrs by broth microdilution method; assay type: functional; conditions: DS17232, 24 h
Escherichia coli [22] = experiment: Antibacterial activity against Escherichia coli DM17528 after 24 hrs by broth microdilution method; assay type: functional; conditions: DM17528, 24 h
Klebsiella pneumoniae [23] = experiment: Antibacterial activity against Klebsiella pneumoniae DS07955 after 24 hrs by broth microdilution method; assay type: functional; conditions: DS07955, 24 h
Klebsiella pneumoniae [24] = experiment: Antibacterial activity against Klebsiella pneumoniae DS16260 after 24 hrs by broth microdilution method; assay type: functional; conditions: DS16260, 24 h
Klebsiella pneumoniae [25] = experiment: Antibacterial activity against Klebsiella pneumoniae DU31158 after 24 hrs by broth microdilution method; assay type: functional; conditions: DU31158, 24 h
Klebsiella pneumoniae [26] = experiment: Antibacterial activity against Klebsiella pneumoniae DB55301 after 24 hrs by broth microdilution method; assay type: functional; conditions: DB55301, 24 h
Pseudomonas aeruginosa [27] = experiment: Antibacterial activity against Pseudomonas aeruginosa DM23155 after 24 hrs by checkerboard assay in presence of nalidixic acid; assay type: functional
Pseudomonas aeruginosa [28] = experiment: Antibacterial activity against Pseudomonas aeruginosa DM23155 after 24 hrs by checkerboard assay in presence of gentamicin; assay type: functional
Pseudomonas aeruginosa [29] = experiment: Antibacterial activity against Pseudomonas aeruginosa DM23155 after 24 hrs by checkerboard assay in presence of erythromycin; assay type: functional
Pseudomonas aeruginosa [30] = experiment: Antibacterial activity against Pseudomonas aeruginosa DM23155 after 24 hrs by checkerboard assay in presence of streptomycin; assay type: functional
Pseudomonas aeruginosa [31] = experiment: Antibacterial activity against Pseudomonas aeruginosa DM23155 after 24 hrs by checkerboard assay in presence of kanamycin; assay type: functional
Escherichia coli [32] = experiment: Antibacterial activity against Escherichia coli ATCC 25922 after 24 hrs by checkerboard assay in presence of nalidixic acid; assay type: functional
Escherichia coli [33] = experiment: Antibacterial activity against Escherichia coli ATCC 25922 after 24 hrs by checkerboard assay in presence of gentamicin; assay type: functional
Escherichia coli [34] = experiment: Antibacterial activity against Escherichia coli ATCC 25922 after 24 hrs by checkerboard assay in presence of erythromycin; assay type: functional
Escherichia coli [35] = experiment: Antibacterial activity against Escherichia coli ATCC 25922 after 24 hrs by checkerboard assay in presence of streptomycin; assay type: functional
Escherichia coli [36] = experiment: Antibacterial activity against Escherichia coli ATCC 25922 after 24 hrs by checkerboard assay in presence of kanamycin; assay type: functional

## CCCCCCCCCC(=O)N[C@@H](CCCNC(=N)N)C(=O)NCC(=O)N[C@@H](CCCNC(=N)N)C(=O)N[C@@H](CCCCN)C(=O)N[C@H](C(=O)N[C@H](C(=O)N[C@@H](CCCNC(=N)N)C(=O)N[C@@H](CCCNC(=N)N)C(=O)NCCCC[C@H](NC(=O)[C@H](CCCNC(=N)N)NC(=O)[C@H](CCCNC(=N)N)NC(=O)[C@@H](NC(=O)[C@@H](NC(=O)[C@H](CCCCN)NC(=O)[C@H](CCCNC(=N)N)NC(=O)CNC(=O)[C@H](CCCNC(=N)N)NC(=O)CCCCCCCCC)C(C)C)C(C)C)C(=O)N[C@@H](CCCCN)C(=O)O)C(C)C)C(C)C (I: Decanoyl-RGRKVVRRKK-OH / II: Decanoyl-RGRKVVRR; amide I:9-II:C)
[1]
  HC10: > 10000 µg/mL
Klebsiella pneumoniae [2]
  MIC: 3 µM (≈ 7.8 µg/mL)
Pseudomonas aeruginosa [3]
  MIC: 3 µM (≈ 7.8 µg/mL)
Escherichia coli [4]
  MIC: 6 µM (≈ 15.6 µg/mL)
Pseudomonas aeruginosa [5]
  MIC: 1.5 µM (≈ 3.9 µg/mL)
Pseudomonas aeruginosa [6]
  MIC: 1.5 µM (≈ 3.9 µg/mL)
Pseudomonas aeruginosa [7]
  MIC: 3 µM (≈ 7.8 µg/mL)
Pseudomonas aeruginosa [8]
  MIC: 3 µM (≈ 7.8 µg/mL)
Pseudomonas aeruginosa [9]
  MIC: 3 µM (≈ 7.8 µg/mL)
Pseudomonas aeruginosa [10]
  MIC: 3 µM (≈ 7.8 µg/mL)
Pseudomonas aeruginosa [11]
  MIC: 6 µM (≈ 15.6 µg/mL)
Pseudomonas aeruginosa [12]
  MIC: 3 µM (≈ 7.8 µg/mL)
Pseudomonas aeruginosa [13]
  MIC: 3 µM (≈ 7.8 µg/mL)
Lipopolysaccharide (LPS) [14]
  Activity: 131%
Lipopolysaccharide (LPS) [15]
  EC50: 38.1 µM
Pseudomonas aeruginosa [16]
  Activity: Active
Pseudomonas aeruginosa [17]
  Activity: >80%
Pseudomonas aeruginosa [18]
  Activity: 51.1%
[19]
  Activity: Active
[20]
  Activity: Active

## CCCCCC(=O)N[C@@H](CCCNC(=N)N)C(=O)NCC(=O)N[C@@H](CCCNC(=N)N)C(=O)N[C@@H](CCCCN)C(=O)N[C@H](C(=O)N[C@H](C(=O)N[C@@H](CCCNC(=N)N)C(=O)N[C@@H](CCCNC(=N)N)C(=O)NCCCC[C@H](NC(=O)[C@H](CCCNC(=N)N)NC(=O)[C@H](CCCNC(=N)N)NC(=O)[C@@H](NC(=O)[C@@H](NC(=O)[C@H](CCCCN)NC(=O)[C@H](CCCNC(=N)N)NC(=O)CNC(=O)[C@H](CCCNC(=N)N)NC(=O)CCCCC)C(C)C)C(C)C)C(=O)N[C@@H](CCCCN)C(=O)O)C(C)C)C(C)C (I: Hexanoyl-RGRKVVRRKK-OH / II: Hexanoyl-RGRKVVRR; amide I:9-II:C)
[1]
  HC10: > 10000 µg/mL
Klebsiella pneumoniae [2]
  MIC: 6 µM (≈ 14.9 µg/mL)
Pseudomonas aeruginosa [3]
  MIC: 6 µM (≈ 14.9 µg/mL)
Escherichia coli [4]
  MIC: 3 µM (≈ 7.46 µg/mL)
Escherichia coli [21]
  MIC: 10 µM (≈ 24.9 µg/mL)
Escherichia coli [22]
  MIC: 10 µM (≈ 24.9 µg/mL)
Klebsiella pneumoniae [23]
  MIC: 10 µM (≈ 24.9 µg/mL)
Klebsiella pneumoniae [24]
  MIC: 3 µM (≈ 7.46 µg/mL)
Klebsiella pneumoniae [25]
  MIC: 10 µM (≈ 24.9 µg/mL)
Klebsiella pneumoniae [26]
  MIC: 10 µM (≈ 24.9 µg/mL)
Lipopolysaccharide (LPS) [14]
  Activity: 100%
Lipopolysaccharide (LPS) [15]
  EC50: 187 µM
Pseudomonas aeruginosa [17]
  Activity: >80%
[19]
  Activity: Active
Pseudomonas aeruginosa [27]
  fractional inhibitory concentration index (FICI): 0.38
Pseudomonas aeruginosa [28]
  fractional inhibitory concentration index (FICI): 0.25
Pseudomonas aeruginosa [29]
  fractional inhibitory concentration index (FICI): 0.38
Pseudomonas aeruginosa [30]
  fractional inhibitory concentration index (FICI): 0.38
Pseudomonas aeruginosa [31]
  fractional inhibitory concentration index (FICI): 0.31
Escherichia coli [32]
  fractional inhibitory concentration index (FICI): 0.5
Escherichia coli [33]
  fractional inhibitory concentration index (FICI): 0.38
Escherichia coli [34]
  fractional inhibitory concentration index (FICI): 0.38
Escherichia coli [35]
  fractional inhibitory concentration index (FICI): 0.38
Escherichia coli [36]
  fractional inhibitory concentration index (FICI): 0.5
